Experimental data published in US20130035314A1, “METHODS AND KITS FOR DETECTING RISK FACTORS FOR DEVELOPMENT OF JAW OSTEONECROSIS AND METHODS OF TREATMENT THEREOF” (priority 2010, published 2013).
Values belong to the compound of their own block, whether it stands above or below them.

Key:
[1] = Cohort study of multiple myeloma patients on IV BP: risk factors for BONJ (univariate and multivariate logistic regression); format: in vivo, human
Method: Multiple myeloma patients who were on intravenous BP (zoledronate or pamidronate) were recruited to voluntarily participate in this Institution Review Board (IRB) approved study. These patients signed informed consents and were followed routinely in the outpatient clinic. In addition to MM treatments, patients received either pamidronate 90mg or zoledronate 4mg IV monthly. Demographic and clinical information were verified from reviewing the medical records and tabled for analysis. Certain life style factors such as smoking at any time in the past, as well as certain co-morbidities such as diabetes mellitus, and prior drugs used were among the data collected on all patients.
Patients were considered to have BONJ if all of the following three characteristics are present (American Association of Oral and Maxillofacial Surgeons position paper, J Oral Maxillofac Surg, 65(3):369-76, 2007): 1) Current or previous treatment with a bisphosphonate; 2) Exposed bone in the maxillofacial region that has persisted for more than eight weeks; and 3) No history of radiation therapy to the jaws. […]
Baseline characteristics were compared by student's t-test or chi-square tests as appropriate. Allele frequencies deviations from Hardy-Weinberg Equilibrium (HWE) were assessed using chi-square tests with one degree of freedom. […]

[2] = Chart review of BONJ incidence in bisphosphonate-treated cancer patients; format: in vivo, human; details: outpatient bone marrow transplant clinic, all patients had myeloma; pamidronate only
From the text: Medical and dental charts at the University of Florida (UF) and the associated Veterans Administration Medical Center (VAMC) were reviewed. […] There were 21 males. […] Fourteen patients had modest increases in their serum creatinine concentrations. The average number of previous chemo/radiotherapy regimens was 3.5. […] Primary disease status was as follows: 12 patients in clinical remission, 5 with stable disease and 10 with progressive disease. Eight patients received statin therapy and 6 had diabetes mellitus. The median length of treatment with bisphosphonate (BP) before the diagnosis of BONJ was 28 months. BONJ involved the mandible in 21 patients, maxilla in 4 and both in 2 patients. The most frequent presentation was pain, swelling, and exposed bone (FIG. 1). […] The BONJ incidence differed among the 3 centers where these patients were treated. […] The incidence in the VAMC was 4.2% while the incidence in the Cancer Center clinic at UF was 1.7%. In the latter two groups, patients had mostly solid tumors. The results described herein are consistent with the reports of increased incidence of BONJ with greater duration of therapy and that myeloma patients are more likely to develop the complication than solid tumor patients.

Odds Ratio for BONJ ([1]; multivariate logistic regression analysis of potential risk factors, MM patients on IV BP): 0.106
Structure (SMILES): O=C1CCC(N2C(=O)c3ccccc3C2=O)C(=O)N1 (stereo not drawn) [Thalidomide]

Structure (SMILES): NCCC(O)(P(=O)(O)O)P(=O)(O)O [pamidronate]
BONJ incidence [2]: 4%

Structure (SMILES): O=P(O)(O)C(O)(Cn1ccnc1)P(=O)(O)O [zoledronate]
association between BONJ and treatment ([1]; univariate analysis, persisted in multivariate logistic regression, P=0.00029, 78 MM patients, 12 with BONJ): significant association
